Results: patent publication US11396495B2, “Amine compound for inhibiting SSAO/VAP-1 and use thereof” (SUNSHINE LAKE PHARMA CO., LTD., priority 2017, dated 2022)
Counter-ions that a name gives are not always drawn.

How the values were obtained:
[1] = biological target: Human recombinant SSAO/VAP-1 (Homo sapiens (Human), UniProt Q16853); test: Determination of inhibitory activity of human recombinant SSAO/VAP-1 (Amplex Red, benzylamine); type: biochemical; conditions: human recombinant SSAO/VAP-1, 30 min preincubation at room temperature; read-out: SSAO/VAP-1(Human recombinant protein) IC50/nM
Sequence of Human recombinant SSAO/VAP-1 (Q16853 whole entry): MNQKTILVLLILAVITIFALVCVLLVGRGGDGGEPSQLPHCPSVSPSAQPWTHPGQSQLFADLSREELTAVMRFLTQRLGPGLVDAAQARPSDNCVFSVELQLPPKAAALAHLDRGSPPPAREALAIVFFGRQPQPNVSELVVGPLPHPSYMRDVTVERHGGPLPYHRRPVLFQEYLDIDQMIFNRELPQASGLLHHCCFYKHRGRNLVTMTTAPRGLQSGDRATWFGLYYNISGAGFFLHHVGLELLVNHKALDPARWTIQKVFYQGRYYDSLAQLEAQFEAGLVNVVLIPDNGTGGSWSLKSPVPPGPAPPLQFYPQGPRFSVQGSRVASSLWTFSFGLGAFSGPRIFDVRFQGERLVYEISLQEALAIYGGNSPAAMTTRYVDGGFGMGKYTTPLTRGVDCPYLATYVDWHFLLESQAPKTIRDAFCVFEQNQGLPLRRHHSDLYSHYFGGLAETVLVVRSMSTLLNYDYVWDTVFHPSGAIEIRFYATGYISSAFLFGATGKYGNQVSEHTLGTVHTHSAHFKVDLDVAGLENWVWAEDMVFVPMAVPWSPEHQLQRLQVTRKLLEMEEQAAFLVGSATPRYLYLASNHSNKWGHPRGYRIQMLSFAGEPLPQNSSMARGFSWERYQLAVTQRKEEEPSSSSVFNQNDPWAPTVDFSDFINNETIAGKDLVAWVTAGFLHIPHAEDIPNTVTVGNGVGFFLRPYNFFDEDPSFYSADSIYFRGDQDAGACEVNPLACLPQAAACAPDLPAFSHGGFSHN
Procedure: 1. Determination of Inhibitory Activity of Human Recombinant SSAO/VAP-1
Test purpose: The following methods can be used to determine the inhibitory activity of the compounds described in the examples of the invention for human recombinant SSAO/VAP-1.
Human recombinant SSAO/VAP-1 (VAP-1, human) purchased from Sigma, Cat. No. SRP6241;
The test compound was dissolved in DMSO and diluted to 10 concentrations in 4-fold serial dilution. In 384 well plates, 25 μL of human recombinant SSAO/VAP-1 (1.6 μg/ml) was added to each well. 100 nL of test compounds with different concentrations were added to each well containing human recombinant SSAO/VAP-1 and incubated at room temperature for 30 min. After 30 min incubation, 25 μl of Amplex® red monoamine oxidase assay kit (containing a reaction mixture of 200 μm Amplex Red reagent, 1 U/ml HRP and 1 mm benzylamine hydrochloride) was added to the corresponding well, and incubated at room temperature and dark for 60 min. After 60 min, the relative fluorescence unit (RFU) was read by using PerkinElmer's Envision at 530-560 nm excitation and 590 nm emission. The curve was drawn by using the graph pad prism 5 software, and the IC50 value was calculated. The results were shown in table 1, wherein the compound listed in table 1 is the compound in the preparation examples with the same compound number: […]

[2] = biological target: rat adipose tissue homogenate SSAO/VAP-1 (Rattus norvegicus (Rat), UniProt O08590); test: Determination of inhibitory activity of rat adipose tissue homogenate SSAO/VAP-1; type: biochemical, Sprague Dawley rats; conditions: rat abdominal adipose tissue homogenate, pargyline pretreated, 37° C.
Sequence of rat adipose tissue homogenate SSAO/VAP-1 (O08590 whole entry): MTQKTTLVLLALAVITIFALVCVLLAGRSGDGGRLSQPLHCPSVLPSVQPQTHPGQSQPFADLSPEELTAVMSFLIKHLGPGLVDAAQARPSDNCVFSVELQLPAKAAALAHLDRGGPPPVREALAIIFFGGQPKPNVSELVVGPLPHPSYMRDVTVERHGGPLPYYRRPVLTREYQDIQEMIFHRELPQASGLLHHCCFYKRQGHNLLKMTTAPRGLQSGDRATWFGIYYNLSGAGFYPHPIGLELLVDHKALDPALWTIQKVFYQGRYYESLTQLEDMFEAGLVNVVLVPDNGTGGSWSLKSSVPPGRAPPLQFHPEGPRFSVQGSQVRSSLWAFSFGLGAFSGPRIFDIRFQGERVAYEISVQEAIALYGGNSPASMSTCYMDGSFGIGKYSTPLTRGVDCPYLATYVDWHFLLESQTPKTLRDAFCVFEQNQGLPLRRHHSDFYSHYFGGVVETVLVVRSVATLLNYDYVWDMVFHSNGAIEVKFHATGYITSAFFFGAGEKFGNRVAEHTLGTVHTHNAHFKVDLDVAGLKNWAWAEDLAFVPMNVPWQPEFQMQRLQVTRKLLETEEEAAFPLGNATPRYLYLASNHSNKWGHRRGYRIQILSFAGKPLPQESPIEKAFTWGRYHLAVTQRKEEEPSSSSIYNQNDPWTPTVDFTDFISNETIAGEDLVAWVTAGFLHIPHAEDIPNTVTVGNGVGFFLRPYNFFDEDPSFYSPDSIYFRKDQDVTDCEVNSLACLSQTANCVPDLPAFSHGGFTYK
Procedure: 2. Determination of Inhibitory Activity of Rat Adipose Tissue Homogenate SSAO/VAP-1
Test purpose: The following methods can be used to determine the inhibitory activity of the compounds of the invention for rat adipose tissue homogenate SSAO/VAP-1.
The abdominal fat removed from Sprague Dawley rats was a tissue rich in SSAO/VAP-1. 5 mL Of HES buffer per gram of rat abdominal adipose tissue (20 mM Sodium N-piperazine-N-ethanesulfonate, 1 mm EDTA, 250 mM sucrose, 1×PMSF and 100 mM (3-glycerol phosphate disodium salt hydrate, pH 7.4) was added for homogenizing. The fat tissue was homogenized for 3 min by using Bertin precellys 24 multi-functional sample homogenizer of Bertin technologies, and the fat tissue homogenate was centrifuged for 10 min at 4° C. and 20000 g, and the middle transparent supernatant was taken. The supernatant was incubated with 0.5 mm Pargyline hydrochloride dissolved in HES buffer at 37° C. for 30 min. After 30 min incubation, 25 μl of fat tissue supernatant was added to the standard 96 well plate. The test compound was dissolved in DMSO and diluted to 6 concentrations. 25 μL Of the test compounds with different concentrations was added to each well containing the supernatant of fat tissue and incubated at 37° C. for 30 min. After incubation, 50 μL of the reaction mixture containing 80 μM benzylamine hydrochloride (containing 100 μM Amplex® red and 0.2 U/mL HRP, Amplex® Red Hydrogen peroxideperoxidase assay kit) was added to the corresponding wells and incubated at 37° C. for 30 min. After 30 min, the relative fluorescence unit (RFU) was read by using PHERAstar FSX enzyme marker of BMG LABTECH at 540 nm excitation and 580 nm emission. The curve was drawn by using the graph pad prism 5 software, and the IC50 value was calculated. The results were shown in table 2, wherein the compound listed in table 2 is the compound in the preparation examples with the same compound number: Table 2: inhibitory activity of the compound of examples of the invention for SSAO/VAP-1 of fat tissue homogenate

| SMILES | IC50 [1] [nM] | IC50 [2] [nM] |
| --- | --- | --- |
| NC/C(=C/F)COc1ccc2c(c1)CCN(Cc1ccon1)C2=O [Compound 43, 6-[(Z)-2-(aminomethyl)-3-fluoro-allyloxy]-2-(isoxazol-3-yl-methyl)-3,4-dihydroisoquinolin-1-one hydrochloride] | 0.71 |  |
| CN1CCc2cc(OC/C(=C/F)CN)ccc2C1=O [Compound 8, 6-[(E)-2-(aminomethyl)-3-fluoro-allyloxy]-2-methyl-3,4-dihydroisoquinolin-1-one hydrochloride] | 0.32 | 8.84 |
| COC(=O)CN1CCc2cc(OC/C(=C/F)CN)ccc2C1=O [Compound 58, methyl 2-[6-[(E)-2-(aminomethyl)-3-fluoro-allyloxy]-1-oxo-3,4-dihydroisoquinolin-2-yl]acetate hydrochloride] | 1.17 |  |
| NC/C(=C\F)COc1ccc2c(c1)CCN(c1ccccc1)C2=O [Compound 5, 6-[(E)-2-(aminomethyl)-3-fluoro-allyloxy]-2-phenyl-3,4-dihydroisoquinolin-1-one hydrochloride] | 0.37 | 4.87 |
| N#Cc1ccc(N2CCc3cc(OC/C(=C\F)CN)ccc3C2=O)cc1 [Compound 39, 4-[6-[(Z)-2-(aminomethyl)-3-fluoro-allyloxy]-1-oxo-3,4-dihydroisoquinolin-2-yl]benzonitrile hydrochloride] | 0.53 |  |
| NC/C(=C/F)COc1ccc2c(c1)NC(=O)CC2 [Compound 2, 7-[(Z)-2-(aminomethyl)-3-fluoro-allyloxy]-3,4-dihydro-1H-quinolin-2-one hydrochloride] | 1.01 | 11.6 |
| N#Cc1ccc(N2CCc3cc(OC/C(=C/F)CN)ccc3C2=O)cc1 [Compound 38, 4-[6-[(E)-2-(aminomethyl)-3-fluoro-allyloxy]-1-oxo-3,4-dihydroisoquinolin-2-yl]benzonitrile hydrochloride] | 0.68 |  |
| NC/C(=C\F)COc1ccc2c(c1)CCNS2(=O)=O [Compound 32, (E)-2-[(1,1-dioxo-3,4-dihydro-2H-benzo[e][1,2]thiazin-6-yl)oxymethyl]-3-fluoro-prop-2-enyl-1-amine hydrochloride] |  | 6.22 |
| NC/C(=C/F)COc1ccc2c(c1)CCN(CCOCc1ccccc1)C2=O [Compound 21, 6-[(Z)-2-(aminomethyl)-3-fluoro-allyloxy]-2-(2-benzyloxyethyl)-3,4-dihydro isoquinolin-1-one hydrochloride] | 0.91 |  |
| CCOC(=O)CN1CCc2cc(OC/C(=C\F)CN)ccc2C1=O [Compound 13, ethyl 2-[6-[(Z)-2-(aminomethyl)-3-fluoro-allyloxy]-1-oxo-3,4-dihydroisoquinolin-2-yl]acetate hydrochloride] | 0.11 | 8.03 |
| COc1ncc(N2CCc3cc(OC/C(=C\F)CN)ccc3C2=O)cn1 [Compound 55, 6-[(Z)-2-[(aminomethyl)-3-fluoro-allyloxy]-2-(2-methoxypyrimidin-5-yl)-3,4-dihydroisoquinolin-1-one hydrochloride] | 0.82 |  |
| NC/C(=C/F)COc1ccc2c(c1)CCN(c1ccccc1)C2 [Compound 53, (Z)-3-fluoro-2-[(2-phenyl-3,4-dihydro-1H-isoquinolin-6-yl)oxymethyl]prop-2-enyl-1-amine hydrochloride] | 1.04 |  |
| NC/C(=C\F)COc1ccc2c(c1)CCN(Cc1ccon1)C2=O [Compound 42, 6-[(E)-2-(aminomethyl)-3-fluoro-allyloxy]-2-(isoxazol-3-yl-methyl)-3,4-dihydroisoquinolin-1-one hydrochloride] | 1.13 |  |
| NC/C(=C\F)COc1ccc2c(c1)NC(=O)CC2 [Compound 1, 7-[(E)-2-(aminomethyl)-3-fluoro-allyloxy]-3,4-dihydro-1H-quinolin-2-one hydrochloride] |  | 10.1 |

Results, then the compound that gave them:

| IC50 [1] [nM] | IC50 [2] [nM] | SMILES |
| --- | --- | --- |
| 0.58 | 5.03 | NC/C(=C/F)COc1ccc2c(c1)CCN(C1CCOCC1)C2=O [Compound 17, 6-[(Z)-2-(aminomethyl)-3-fluoro-allyloxy]-2-(tetrahydropyran-4-yl)-3,4-dihydroisoquinolin-1-one hydrochloride] |
| 0.82 | 11.7 | NC/C(=C/F)COc1ccc2c(c1)CCN(CC1CCOCC1)C2=O [Compound 11, 6-[(Z)-2-(aminomethyl)-3-fluoro-allyloxy]-2-(tetrahydropyranyl-4-methylene)-3,4-dihydroisoquinolin-1-one hydrochloride] |
| 0.63 |  | NC/C(=C/F)COc1ccc2c(c1)CCN(c1nccs1)C2=O [Compound 41, 6-[(Z)-2-(aminomethyl)-3-fluoro-allyloxy]-2-thiazol-2-yl-3,4-dihydroisoquinolin-1-one hydrochloride] |
| 1.3 |  | COC(=O)CN1CCc2cc(OC/C(=C\F)CN)ccc2C1=O [Compound 59, methyl 2-[6-[(Z)-2-(aminomethyl)-3-fluoro-allyloxy]-1-oxo-3,4-dihydroisoquinolin-2-yl]acetate hydrochloride] |
| 1.91 |  | COC(=O)CCN1CCc2cc(OC/C(=C/F)CN)ccc2C1=O [Compound 56, methyl 3-[6-[(E)-2-(aminomethyl)-3-fluoro-allyloxy]-1-oxo-3,4-dihydroisoquinolin-2-yl]propionate hydrochloride] |
| 0.09 | 8.98 | NC/C(=C\F)COc1ccc2c(c1)CCN(c1ncccn1)C2=O [Compound 7, 6-[(E)-2-(aminomethyl)-3-fluoro-allyloxy]-2-(pyrimidin-2-yl)-3,4-dihydroisoquinolin-1-one hydrochloride] |
| 1.27 |  | COC(=O)CCN1CCc2cc(OC/C(=C\F)CN)ccc2C1=O [Compound 57, methyl 3-[6-[(Z)-2-(aminomethyl)-3-fluoro-allyloxy]-1-oxo-3,4-dihydroisoquinolin-2-yl]propionate hydrochloride] |
| 1 |  | NC/C(=C\F)COc1ccc2c(c1)CCN(c1nccs1)C2=O [Compound 40, 6-[(E)-2-(aminomethyl)-3-fluoro-allyloxy]-2-thiazol-2-yl-3,4-dihydroisoquinolin-1-one hydrochloride] |
| 1.98 | 4.88 | NC/C(=C/F)COc1ccc2c(c1)CCNS2(=O)=O [Compound 33, (E)-2-[(1,1-dioxo-3,4-dihydro-2H-benzo[e][1,2]thiazin-6-yl)oxymethyl]-3-fluoro-prop-2-enyl-1-amine hydrochloride] |
| 0.71 |  | NC/C(=C/F)COc1ccc2c(c1)CCN(c1ccccc1F)C2=O [Compound 35, 6-[(Z)-2-(aminomethyl)-3-fluoro-allyloxy]-2-(2-fluorophenyl)-3,4-dihydroisoquinolin-1-one hydrochloride] |
| 1.16 |  | NC/C(=C\F)COc1ccc2c(c1)CCN(c1ccccc1F)C2=O [Compound 34, 6-[(E)-2-(aminomethyl)-3-fluoro-allyloxy]-2-(2-fluorophenyl)-3,4-dihydroisoquinolin-1-one hydrochloride] |
|  | 9.54 | NC/C(=C\F)COc1ccc2c(c1)CCN(CC1CCOCC1)C2=O [Compound 10, 6-[(E)-2-(aminomethyl)-3-fluoro-allyloxy]-2-(tetrahydropyranyl-4-methylene)-3,4-dihydroisoquinolin-1-one hydrochloride] |
| 1.53 |  | NC/C(=C\F)COc1ccc2c(c1)CCN(c1ccccn1)C2=O [Compound 28, 6-[(E)-2-(aminomethyl)-3-fluoro-allyloxy]-2-(2-pyridyl)-3,4-dihydroisoquinolin-1-one hydrochloride] |
| 0.04 |  | NC/C(=C/F)COc1ccc2c(c1)CCN(c1ccccc1)C2=O [Compound 6, 6-[(Z)-2-(aminomethyl)-3-fluoro-allyloxy]-2-phenyl-3,4-dihydroisoquinolin-1-one hydrochloride] |
